The results in this text go back to patent publication US7956074B2, “Aryl-isoxazolo-4-yl-oxadiazole derivatives” (Hoffman-La Roche Inc., priority 2005, dated 2011).

Each structure is given as a SMILES string.

In this experiment the target is T1, GABA A receptor α5β3γ2 (Homo sapiens, UniProt P18507+P31644).
T1 construct: expressed in transfected cells; host or cells: HEK293 cells, transiently transfected; membranes prepared
In words: [3H]flumazenil competition binding, human GABA A α5β3γ2. The settings on record: competition for [3H]flumazenil (0.5 nM) binding, HEK293 cells expressing human (transiently transfected) α5β3γ2; means of two determinations; read-out: Ki[nM] hα5. In a few lines: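 HEK293 membranes expressing GABA-A receptors (human transiently, rat stably transfected) were used for [3H]flumazenil competition in Krebs-tris buffer, pH 7.5. Incubation ran 1 h at 4 °C to equilibrium, followed by filtration and scintillation counting. Ki values are means of two determinations.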

For orientation: Ki means a dissociation constant, usually derived from enzyme kinetics or from competition with a known ligand. Take `COc1cc(-n2nccn2)ccc1-c1nnc(-c2c(-c3ccccc3)noc2C)o1` [Example 85, 2-(2-Methoxy-4-[1,2,3]triazol-2-yl-phenyl)-5-(5-methyl-3-phenyl-isoxazol-4-yl)-[1,3,4]oxadiazole]: the inhibition constant Ki stood at 20.6 nM.
As to `COc1cc(-n2ccnn2)ccc1-c1nnc(-c2c(-c3ccccc3)noc2C)o1` [Example 86, 2-(2-Methoxy-4-[1,2,3]triazol-1-yl-phenyl)-5-(5-methyl-3-phenyl-isoxazol-4-yl)-[1,3,4]oxadiazole], the inhibition constant Ki is 4.8 nM.
For the molecule `CNCc1onc(-c2ccccc2)c1-c1nnc(-c2ccc(F)cc2OC)o1` [Example 88, {4-[5-(4-Fluoro-2-methoxy-phenyl)-[1,3,4]oxadiazol-2-yl]-3-phenyl-isoxazol-5-ylmethyl}-methyl-amine], the inhibition constant (Ki) was 339 nM.
Under `COc1cc(NC(C)=O)ccc1-c1nnc(-c2c(-c3ccccc3)noc2C)o1` [Example 89, N-{3-Methoxy-4-[5-(5-methyl-3-phenyl-isoxazol-4-yl)-[1,3,4]oxadiazol-2-yl]-phenyl}-acetamide] stands 4.6 nM; under `CCC(=O)Nc1ccc(-c2nnc(-c3c(-c4ccccc4)noc3C)o2)c(OC)c1` [Example 90, N-{3-Methoxy-4-[5-(5-methyl-3-phenyl-isoxazol-4-yl)-[1,3,4]oxadiazol-2-yl]-phenyl}-propionamide], 4.8 nM.
On to `COCc1onc(-c2ccccc2)c1-c1nnc(-c2ccc(F)cc2OC)o1` [Example 91, 2-(4-Fluoro-2-methoxy-phenyl)-5-(5-methoxymethyl-3-phenyl-isoxazol-4-yl)-[1,3,4]oxadiazole], for which the inhibition constant Ki came to 112 nM.
For `COc1cc(F)ccc1-c1nnc(-c2c(-c3ccccc3)noc2CO)o1` [Example 92, {4-[5-(4-Fluoro-2-methoxy-phenyl)-[1,3,4]oxadiazol-2-yl]-3-phenyl-isoxazol-5-yl}-methanol] the value was 293 nM; for `COc1ncccc1-c1nnc(-c2c(-c3ccccc3)noc2C)o1` [Example 93, 2-Methoxy-3-[5-(5-methyl-3-phenyl-isoxazol-4-yl)-[1,3,4]oxadiazol-2-yl]-pyridine], 22.8 nM.
With `COc1cc(N2CCOCC2)ccc1-c1nnc(-c2c(-c3cccc(Cl)c3)noc2C)o1` [Example 94, 4-(4-{5-[3-(3-Chloro-phenyl)-5-methyl-isoxazol-4-yl]-[1,3,4]oxadiazol-2-yl}-3-methoxy-phenyl)-morpholine], the Ki stood at 19.3 nM.
For `COc1cc(N2CCOCC2)ccc1-c1nnc(-c2conc2-c2ccccc2)o1` [Example 95, 4-{3-Methoxy-4-[5-(3-phenyl-isoxazol-4-yl)-[1,3,4]oxadiazol-2-yl]-phenyl}-morpholine] the value was 44.5 nM.
As for `COc1cc(N2CCOCC2)ccc1-c1nnc(-c2c(-c3ccccc3)noc2-c2ccccc2)o1` [Example 96, 4-{4-[5-(3,5-Diphenyl-isoxazol-4-yl)-[1,3,4]oxadiazol-2-yl]-3-methoxy-phenyl}-morpholine], the inhibition constant (Ki) was found to be 15.3 nM.
For `COc1cc(N2CCOCC2)ccc1-c1nnc(-c2c(-c3ccccc3Cl)noc2C)o1` [Example 97, 4-(4-{5-[3-(2-Chloro-phenyl)-5-methyl-isoxazol-4-yl]-[1,3,4]oxadiazol-2-yl}-3-methoxy-phenyl)-morpholine], the Ki amounted to 105 nM.
On to `COc1cc(N2CCOCC2)ccc1-c1nnc(-c2conc2-c2ccc(F)cc2)o1` [Example 98, 4-(4-{5-[3-(4-Fluoro-phenyl)-isoxazol-4-yl]-[1,3,4]oxadiazol-2-yl}-3-methoxy-phenyl)-morpholine], for which the Ki amounted to 49 nM.
Under `COc1ccc(-c2nnc(-c3c(-c4ccccc4)noc3C)o2)c(Cl)n1` [Example 99, 2-Chloro-6-methoxy-3-[5-(5-methyl-3-phenyl-isoxazol-4-yl)-[1,3,4]oxadiazol-2-yl]-pyridine] stands 95.8 nM; under `COc1ccc(-c2nnc(-c3c(-c4ccccc4)noc3C)o2)c(OC)n1` [Example 100, 2,6-Dimethoxy-3-[5-(5-methyl-3-phenyl-isoxazol-4-yl)-[1,3,4]oxadiazol-2-yl]-pyridine], 24 nM; under `COc1cc(N2CCOCC2)ccc1-c1nnc(-c2c(-c3ccc(F)cc3)noc2C)o1` [Example 101, 4-(4-{5-[3-(4-Fluoro-phenyl)-5-methyl-isoxazol-4-yl]-[1,3,4]oxadiazol-2-yl}-3-methoxy-phenyl)-morpholine], 14.5 nM.
Under `COc1cc(N2CCOCC2)ccc1-c1nnc(-c2c(-c3cccnc3)noc2C)o1` [Example 102, 4-{3-Methoxy-4-[5-(5-methyl-3-pyridin-3-yl-isoxazol-4-yl)-[1,3,4]oxadiazol-2-yl]-phenyl}-morpholine] stands 146 nM; under `COc1cc(N2CCOCC2)ccc1-c1nnc(-c2c(-c3ccc(C(F)(F)F)cc3)noc2C)o1` [Example 103, 4-(3-Methoxy-4-{5-[5-methyl-3-(4-trifluoromethyl-phenyl)-isoxazol-4-yl]-[1,3,4]oxadiazol-2-yl}-phenyl)-morpholine], 47.6 nM.
As for `COc1cc(N2CCOCC2)ccc1-c1nnc(-c2c(-c3ccc(C)cc3)noc2C)o1` [Example 104, 4-(3-Methoxy-4-{5-[5-methyl-3-(4-methyl-phenyl)-isoxazol-4-yl]-[1,3,4]oxadiazol-2-yl}-phenyl)-morpholine], the Ki is 12.1 nM.
For `COc1cc(N2CCOCC2)ccc1-c1nnc(-c2c(-c3ccccc3)noc2Cl)o1` [Example 105, 4-{4-[5-(5-Chloro-3-phenyl-isoxazol-4-yl)-[1,3,4]oxadiazol-2-yl]-3-methoxy-phenyl}-morpholine] the value was 27.1 nM; for `COc1cc(N2CCOCC2)ccc1-c1nnc(-c2c(-c3ccccc3)noc2N(C)C)o1` [Example 106, {4-[5-(2-Methoxy-4-morpholin-4-yl-phenyl)-[1,3,4]oxadiazol-2-yl]-3-phenyl-isoxazol-5-yl}-dimethyl-amine], 165 nM; for `COc1cc(N2CCOCC2)ccc1-c1nnc(-c2c(-c3ccccc3)noc2N2CCOCC2)o1` [Example 107, 4-{4-[5-(2-Methoxy-4-morpholin-4-yl-phenyl)-[1,3,4]oxadiazol-2-yl]-3-phenyl-isoxazol-5-yl}-morpholine], 31.1 nM.
Under `COc1cc(N2CCOCC2)ccc1-c1nnc(-c2c(-c3cccc(F)c3)noc2C)o1` [Example 108, 4-(4-{5-[3-(3-Fluoro-phenyl)-5-methyl-isoxazol-4-yl]-[1,3,4]oxadiazol-2-yl}-3-methoxy-phenyl)-morpholine] stands 11.3 nM; under `COc1cc(N2CCOCC2)ccc1-c1nnc(-c2c(-c3ccc(Cl)cc3)noc2C)o1` [Example 109, 4-(4-{5-[3-(4-Chloro-phenyl)-5-methyl-isoxazol-4-yl]-[1,3,4]oxadiazol-2-yl}-3-methoxy-phenyl)-morpholine], 2.2 nM; under `COc1cc(N2CCOCC2)ccc1-c1nnc(-c2c(-c3cccs3)noc2C)o1` [Example 110, 4-{3-Methoxy-4-[5-(5-methyl-3-thiophen-2-yl-isoxazol-4-yl)-[1,3,4]oxadiazol-2-yl]-phenyl}-morpholine], 19.5 nM.
As to `CCNc1onc(-c2ccccc2)c1-c1nnc(-c2ccc(N3CCOCC3)cc2OC)o1` [Example 111, Ethyl-{4-[5-(2-methoxy-4-morpholin-4-yl-phenyl)-[1,3,4]oxadiazol-2-yl]-3-phenyl-isoxazol-5-yl}-amine], the Ki amounted to 4.9 nM.
For the molecule `Cc1onc(-c2ccccc2)c1-c1nnc(-c2ccc(N3CCC(F)(F)CC3)cc2)o1` [Example 112, 4,4-Difluoro-1-{4-[5-(5-methyl-3-phenyl-isoxazol-4-yl)-[1,3,4]oxadiazol-2-yl]-phenyl}-piperidine], the Ki was 31.2 nM.
Under `COc1cc(N2CCOCC2)ccc1-c1nnc(-c2c(-c3ccccc3)noc2-n2cccn2)o1` [Example 113, 4-{3-Methoxy-4-[5-(3-phenyl-5-pyrazol-1-yl-isoxazol-4-yl)-[1,3,4]oxadiazol-2-yl]-phenyl}-morpholine] stands 7.4 nM; under `COc1cc(N2CCOCC2)c(F)cc1-c1nnc(-c2c(-c3ccccc3)noc2C)o1` [Example 114, 4-{2-Fluoro-5-methoxy-4-[5-(5-methyl-3-phenyl-isoxazol-4-yl)-[1,3,4]oxadiazol-2-yl]-phenyl}-morpholine], 6 nM; under `COc1cc(N2CCOCC2)ccc1-c1nnc(-c2c(-c3ccccc3)noc2C#N)o1` [Example 115, 4-[5-(2-Methoxy-4-morpholin-4-yl-phenyl)-[1,3,4]oxadiazol-2-yl]-3-phenyl-isoxazole-5-carbonitrile], 131 nM.
For `COc1cc(N2CCSCC2)c(F)cc1-c1nnc(-c2c(-c3ccccc3)noc2C)o1` [Example 116, 4-{2-Fluoro-5-methoxy-4-[5-(5-methyl-3-phenyl-isoxazol-4-yl)-[1,3,4]oxadiazol-2-yl]-phenyl}-thiomorpholine] the value was 4.5 nM; for `COc1cc(N2CCS(=O)(=O)CC2)c(F)cc1-c1nnc(-c2c(-c3ccccc3)noc2C)o1` [Example 117, 4-{2-Fluoro-5-methoxy-4-[5-(5-methyl-3-phenyl-isoxazol-4-yl)-[1,3,4]oxadiazol-2-yl]-phenyl}-thiomorpholine 1,1-dioxide], 2 nM.
Under `Cc1onc(-c2ccccc2)c1-c1nnc(-c2cc(F)c(F)cc2F)o1` [Example 118, 2-(5-Methyl-3-phenyl-isoxazol-4-yl)-5-(2,4,5-trifluoro-phenyl)-[1,3,4]oxadiazole] stands 149 nM; under `Cc1onc(-c2ccccc2)c1-c1nnc(-c2cc(F)c(N3CCSCC3)cc2F)o1` [Example 119, 4-{2,5-Difluoro-4-[5-(5-methyl-3-phenyl-isoxazol-4-yl)-[1,3,4]oxadiazol-2-yl]-phenyl}-thiomorpholine], 24.3 nM.
